Laboratory results as given in ChEMBL document CHEMBL1156829 (Proc Natl Acad Sci U S A, 2008).

Key:
[1] = system: Plasmodium falciparum; experiment: NOVARTIS: Inhibition of Plasmodium falciparum W2 (drug-resistant) proliferation in erythrocyte-based infection assay; assay type: functional, organism-based; conditions: Plasmodium falciparum, W2; read-out: EC50
[2] = NOVARTIS: Cytotoxicity against human hepatocellular carcinoma cell line (Huh7); assay type: toxicity, cell-based, Huh-7; conditions: Huh7 cells (hepatocellular carcinoma cell line)
[3] = system: Plasmodium falciparum; experiment: NOVARTIS: Inhibition of Plasmodium falciparum 3D7 (drug-susceptible) proliferation in erythrocyte-based infection assay; assay type: functional, organism-based; conditions: Plasmodium falciparum, 3D7

Structure (SMILES)	EC50 [1] [nM]	CC50 [2] [nM]	EC50 [3] [nM]
CCN1/C(=C/c2sc3ccc(I)cc3[n+]2CC)C=Cc2ccccc21	364	> 10000	550
O=C(C1CC1)N1CCN=C1SCc1ccc(C(F)(F)F)cc1	> 3700	> 100000	6080
COCCCNC(=O)C=Cc1ccc(C(C)C)cc1	3580	> 100000	5940
CCOc1ccc(CN2CCN(CC(O)COc3ccc(OCC(O)CN4CCN(Cc5ccc(OCC)cc5)CC4)cc3)CC2)cc1 (stereo not given)	2680	73600	1370
CCN(CC)CCCC(C)Nc1ccnc2ccc(-c3ccccc3)cc12 (stereo not given)	359	> 10000	264
Cc1cc(-c2cnc(C)nc2C2CCN(C(=O)c3ccc4ncccc4c3)CC2)on1	420	> 11600	> 917
CN(CCCNc1ccnc2cc(Cl)ccc12)S(=O)(=O)c1ccc2ccccc2c1	200	> 5540	282
CCCCCCCCCC(=O)N(C)CCCNc1ccnc2cc(Cl)ccc12	206	5710	126
CCCCN(C)C(=O)CSc1nc(NCc2ccccc2)c2ccccc2n1	361	> 10000	> 1650
Cn1nc(C(=O)Nc2ccc(F)c(Cl)c2)c2c1-c1ccccc1S(=O)(=O)C2	3610	> 100000	> 12500
CN(C)CCNc1ncc(C(=O)NCc2ccccc2)c(NCCc2ccccc2)n1	361	> 10000	475
O[C@@H]1[C@H]2c3cc4c(cc3CN3CCC(=C[C@@H]1O)[C@H]23)OCO4	361	> 10000	46.5
O=C(NCC1(c2ccccc2)CCCC1)C(=O)Nc1nncs1	> 360	> 10000	> 806
COC(=O)c1c(S(=O)(=O)NCc2cccc(Cl)c2)sc2c1CCN(C(=O)C1CCCO1)C2 (stereo not given)	> 360	> 10000	> 608
CCC[P+](CCC)(CCC)CC1OCc2ccccc2CO1	3600	> 100000	1800
COc1ccc(C2CC(c3c(-c4ccccc4)c4cc(Cl)ccc4[nH]c3=O)=NO2)cc1 (stereo not given)	> 359	> 10000	624
O=C(Nc1ccc(SC(F)(F)F)cc1)Nc1cccnc1N1CCC(C(F)(F)F)CC1	1420	39700	1770
FC(F)(F)c1cccc(NC(=S)N2CCCC2c2ccncc2)c1 (stereo not given)	370	> 10000	327
O=C(NCc1ccccc1)c1cnc(NCCCn2ccnc2)nc1Nc1ccccc1	369	> 10000	611
OC(CCNC1CCCCC1)COc1cccc2ccccc12 (stereo not given)	366	> 10000	789
CCC(C)NC(=O)c1c[nH]c2ccc(S(=O)(=O)N(C)c3cc(C)ccc3C)cc2c1=O (stereo not given)	2170	59300	5220
CC1CCCN(C(=O)C2CCN(Cc3ccccn3)CC2)C1 (stereo not given)	3580	> 100000	> 9140
Cc1cc(C)cc(C(=O)Nc2c3c(nn2-c2cccc(C)c2C)CS(=O)(=O)C3)c1	358	> 10000	329
O=C(/C=C/c1ccccn1)NCC1Cc2cc(-c3cnccn3)ccc2O1 (stereo not given)	> 356	> 10000	> 1250
CC(C)N(CC(=O)Nc1cc(C(C)(C)C)nn1-c1ccc(Cl)c(Cl)c1)C(=O)c1ccc(Cl)c(Cl)c1	356	> 10000	1010
CCOC(=O)c1cnc2ccc(OC)cc2c1NCc1cccs1	3720	> 100000	5900
c1ccc(-c2cc(N3CCOCC3)nc(-c3ccccn3)n2)nc1	372	> 10000	907
O=C1N(Cc2cc3ccccc3s2)CC2CN(Cc3ccccc3)CCN12 (stereo not given)	372	> 10000	436

Structure (SMILES)	EC50 [1] [nM]	CC50 [2] [nM]	EC50 [3] [nM]
O=C1C(=Nc2cccc(C(F)(F)F)c2)c2ccccc2N1CN1CCc2ccccc2C1	3710	> 100000	8380
CC1=CC(=C(C#N)c2nc3ccccc3s2)C=C(C)N1c1ccc2c(c1)OCO2	3710	> 100000	1040
CCOC(=O)c1cnc2ccc3c(c(C)c(C)n3C)c2c1O	370	> 10000	370
Cn1c(=O)n(C)c2cc(NC(=O)CCl)ccc21	444	12200	1460
CCOC(=O)c1sc2ncnc(NCc3ccc(F)cc3)c2c1C	> 3630	> 100000	> 12500
O=C1CN(C(=O)c2cc([N+](=O)[O-])c(N3CCCCC3)c([N+](=O)[O-])c2N2CCCCC2)c2ccccc2N1	1830	50400	2190
COc1cc2c(cc1OC)-c1cc3ccc4c(c3c[n+]1CC2)OCO4	233	> 6250	103
COC(=O)C1=C(C)NC(=Cc2cc(C)n(-c3cc(Cl)ccc3Cl)c2C)C1=O	3680	> 100000	711
CCN1/C(=C\C=C2/SC(=S)N(c3ccccc3)C2=O)C(C)(C)c2cc(-c3ccccc3)ccc21	318	> 8660	128
Cc1ccc(C2CC(C(F)(F)F)n3ncc(C(=O)Nc4ccc(Cl)cc4)c3N2)cc1 (stereo not given)	3440	95000	2870
Cc1cc(C)cc(NC(=O)CCCn2c3ccccc3c(=O)c3cc(C)ccc32)c1	3610	> 100000	4280
O=C(Nc1ccc(-c2nc3cc(NC(=O)C(c4ccccc4)c4ccccc4)ccc3[nH]2)cc1)C(c1ccccc1)c1ccccc1	3680	> 100000	4450
CC(C)CNC(=O)c1cc(NC(=O)c2cccs2)ccc1N1CCc2ccccc2C1	32.7	893	349
CCCC[n+]1c(-c2ccccc2)cc(-c2ccccc2)cc1-c1ccccc1	467	12900	824
COc1cccc(Nc2nc(NCC3CCCO3)c3ccccc3n2)c1 (stereo not given)	286	7670	230
O=C1CCC2C3C=CC(C3)C12 (stereo not given)	447	> 12400	1780
Cc1cc(Nc2ccc(I)cc2)n2ncnc2n1	3590	> 100000	1560
CCC(c1nc2ccccc2c(=O)n1-c1ccccc1OC)N(CCc1ccccc1)C(=O)Nc1ccccc1OC (stereo not given)	366	> 10000	1030
CC1(C)N=C(N)N=C(N)N1c1ccc(F)cc1	1860	51000	21.8
C=C[C@H]1CN2CC[C@H]1C[C@@H]2[C@@H](OC(=O)CC)c1ccnc2ccccc12	370	> 10000	220
O=C1C2C3c4ccccc4C(c4ccccc43)C2C(=O)N1CCO (stereo not given)	3700	> 100000	> 12500
O=c1c(NCc2ccco2)nc2cc(Cl)ccc2n1CCNc1ncc(C(F)(F)F)cc1Cl	2330	63800	810
COC(=O)c1sc(-c2ccccc2)cc1NC(=O)c1ccc(S(=O)(=O)N2CCCCCC2)cc1	> 506	> 14100	> 1250
Brc1ccc(Nc2nc(NCC3CCCO3)c3ccccc3n2)cc1 (stereo not given)	349	9780	468
CCC(CO)Nc1nccnc1-c1ccccc1Oc1ccccc1 (stereo not given)	3560	> 100000	4540
CN1c2ccccc2N(C)C1c1ccco1	356	> 10000	288
Cn1cc(S(=O)(=O)c2cccc(Cl)c2)c(=O)c2cc(F)c(N3CCCCC3)cc21	> 372	> 10000	1030
